From patent US9227967B2, “Inhibitor compounds of semicarbazide-sensitive amine oxidases” (Proximagen Limited, priority 2010, dated 2016) come the findings set out here.

In this assay the target is T1, human SSAO (Homo sapiens, UniProt Q16853).
T1 construct: made in house
T1 sequence (Q16853 29-763 limits assumed): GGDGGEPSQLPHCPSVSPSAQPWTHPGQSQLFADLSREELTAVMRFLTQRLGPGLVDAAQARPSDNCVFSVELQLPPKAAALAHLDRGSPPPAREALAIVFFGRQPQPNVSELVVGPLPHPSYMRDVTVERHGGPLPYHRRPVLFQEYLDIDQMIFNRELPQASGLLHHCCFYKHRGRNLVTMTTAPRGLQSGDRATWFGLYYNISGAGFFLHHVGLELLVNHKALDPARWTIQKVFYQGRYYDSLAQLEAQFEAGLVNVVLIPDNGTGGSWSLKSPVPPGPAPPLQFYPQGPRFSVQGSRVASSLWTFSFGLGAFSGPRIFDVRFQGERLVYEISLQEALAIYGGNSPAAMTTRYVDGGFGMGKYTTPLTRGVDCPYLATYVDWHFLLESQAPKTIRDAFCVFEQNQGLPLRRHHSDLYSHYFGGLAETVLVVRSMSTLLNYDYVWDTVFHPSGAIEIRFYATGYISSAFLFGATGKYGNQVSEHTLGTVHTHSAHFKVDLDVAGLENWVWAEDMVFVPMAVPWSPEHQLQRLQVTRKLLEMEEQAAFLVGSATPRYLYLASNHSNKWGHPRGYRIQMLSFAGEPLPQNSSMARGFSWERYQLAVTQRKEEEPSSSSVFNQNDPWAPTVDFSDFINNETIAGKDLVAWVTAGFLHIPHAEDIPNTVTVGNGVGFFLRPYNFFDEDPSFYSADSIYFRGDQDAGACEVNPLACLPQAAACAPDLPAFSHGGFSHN
Kind of assay: SSAO enzyme inhibition assay (benzylamine substrate; HRP-coupled hydrogen peroxide detection or 14C-benzaldehyde detection). Type of assay: biochemical. The note with it: purified recombinantly expressed human SSAO, benzylamine as substrate, r.t.; read-out: SSAO inhibitory activity IC50. On the procedure: All primary assays were performed at r.t. with purified recombinantly expressed human SSAO. Enzyme was prepared essentially as described in Öhman et al. (Protein Expression and Purification 46 (2006) 321-331). In addition, secondary- and selectivity assays were performed using SSAO prepared from various tissues or purified rat recombinant SSAO. The enzyme activity was assayed with benzylamine as substrate by measuring either benzaldehyde production, using ^14C-labeled substrate, or by utilizing the production of hydrogen peroxide in a horseradish peroxidise (HRP) coupled reaction. Briefly, test compounds were dissolved in dimethyl sulfoxide (DMSO) to a concentration of 10 mM. Dose-response measurements were assayed by either creating 1:10 serial dilutions in DMSO to produce a 7 point curve or by making 1:3 serial dilutions in DMSO to produce 11 point curves. The top concentrations were adjusted depending on the potency of the compounds and subsequent dilution in reaction buffer yielded a final DMSO concentration ≦2%.
In a horseradish peroxidise (HRP) coupled reaction, hydrogen peroxide oxidation of 10-acetyl-3,7-dihydroxyphenoxazine produced resorufin, which is a highly fluorescent compound (Zhout and Panchuk-Voloshina. Analytical Biochemistry 253 (1997) 169-174; Amplex® Red Hydrogen Peroxide/peroxidise Assay kit, Invitrogen A22188). Enzyme and compounds in 50 mM sodium phosphate, pH 7.4 were set to pre-incubate in flat-bottomed microtiter plates for approximately 15 minutes before initiating the reaction by addition of a mixture of HRP, benzylamine and Amplex reagent. Benzylamine concentration was fixed at a concentration corresponding to the Michaelis constant, determined using standard procedures. Fluorescence intensity was then measured at several time points during 1-2 hours, exciting at 544 nm n and reading the emission at 590 nm. For the human SSAO assay final concentrations of the reagents in the assay wells were: SSAO enzyme 1 μg/ml, benzylamine 100 μM, Amplex reagent 20 μM, HRP 0.1 U/mL and varying concentrations of test compound. The inhibition was measured as % decrease of the signal compared to a control without inhibitor (only diluted DMSO). The background signal from a sample containing no SSAO enzyme was subtracted from all data points. Data was fitted to a four parameter logistic model and IC50 values were calculated using the GraphPad Prism 4 or XLfit 4 programs.
SSAO activity was assayed using 14C-labeled benzylamine and analysed by measuring radioactive benzaldehyde. In a white 96-well optiplate (Packard), 20 μL of diluted test compound was pre-incubated at r.t. with 20 μL SSAO enzyme for approximately 15 minutes with continuous agitation. All dilutions were made with PBS. The reaction was initiated by adding 20 μL of the benzylamine substrate solution containing [7-14C] Benzylamine hydrochloride (CFA589, GE Healthcare). The plate was incubated for 1 hour as above after which the reaction was stopped by acidification (10 μL 1 M HCl). Then 90 μL Micro Scint-E solution (Perkin-Elmer) was added to each well and the plate was continuously mixed for 15 minutes. Phase separation occurred instantly and activity was read in a Topcount scintillation counter (Perkin-Elmer). In the final reaction well, human recombinant SSAO concentration was 10 μg/ml. In order to optimize sensitivity, the substrate concentration was decreased as compared to the HRP coupled assay in order to get a higher fraction of radioactive product. In the human SSAO assay, benzylamine concentration was 40 μM (0.2 μCi/mL). Data was analysed as above.

Where only a bound is given, the exact number is not on record here.

As to `OCC1CCN(Cc2cn(-c3ccc(Cl)cc3)c3cnccc23)CC1` [Compound 28, (1-{[1-(4-Chlorophenyl)-1H-pyrrolo[2,3-c]pyridin-3-yl]methyl}piperidin-4-yl)methanol], the IC50 was in the range of 100 to 500 nM.
Regarding `Clc1ccc(-n2cc(CN3CCOCC3)c3ccncc32)cc1` [Compound 29, 4-{[1-(4-Chlorophenyl)-1H-pyrrolo[2,3-c]pyridin-3-yl]methyl}morpholine], the IC50 fell in the range of 500 to 2500 nM.
As for `OC1CCN(Cc2cn(-c3ccc(Cl)cc3)c3cnccc23)CC1` [Compound 30, 1-{[1-(4-Chlorophenyl)-1H-pyrrolo[2,3-c]pyridin-3-yl]methyl}piperidin-4-ol], the IC50 lay in the range of 100 to 500 nM.
`OCCNCc1cn(-c2ccc(Cl)cc2)c2cnccc12` [Compound 31, 2-({[1-(4-Chlorophenyl)-1H-pyrrolo[2,3-c]pyridin-3-yl]methyl}amino)ethan-1-ol]: the IC50 was 500 to 2500 nM.
The same measure for `c1ccc(-n2nc(C3CCOCC3)c3ccncc32)cc1` [Compound 40, 3-(Oxan-4-yl)-1-phenyl-1H-pyrazolo[3,4-c]pyridine]: 500 to 2500 nM; for `N#Cc1ccc(-n2nc(C3CCOCC3)c3ccncc32)cc1` [Compound 41, 4-[3-(Oxan-4-yl)-1H-pyrazolo[3,4-c]pyridin-1-yl]benzonitrile]: 500 to 2500 nM; for `FC(F)c1ccc(-n2nc(C3CCOCC3)c3ccncc32)cc1` [Compound 42, 1-[4-(Difluoromethyl)phenyl]-3-(oxan-4-yl)-1H-pyrazolo[3,4-c]pyridine]: 100 to 500 nM.
Regarding `Cc1ccc(-n2nc(C3CCOCC3)c3ccncc32)c(F)c1` [Compound 43, 1-(2-Fluoro-4-methylphenyl)-3-(oxan-4-yl)-1H-pyrazolo[3,4-c]pyridine], the IC50 was in the range of 100 to 500 nM.
Regarding `Fc1cc(Cl)ccc1-n1nc(C2CCOCC2)c2ccncc21` [Compound 44, 1-(4-Chloro-2-fluorophenyl)-3-(oxan-4-yl)-1H-pyrazolo[3,4-c]pyridine], the half-maximal inhibitory concentration (IC50) is < 100 nM.
In the case of `Cc1ccc(-n2nc(C3CCOCC3)c3ccncc32)c(C)c1` [Compound 45, 1-(2,4-Dimethylphenyl)-3-(oxan-4-yl)-1H-pyrazolo[3,4-c]pyridine], the IC50 lay in the range of 500 to 2500 nM.
As to `Cc1ccc(-n2nc(C3CCOCC3)c3ccncc32)nc1` [Compound 46, 5-Methyl-2-[3-(oxan-4-yl)-1H-pyrazolo[3,4-c]pyridin-1-yl]pyridine], the half-inhibitory concentration (IC50) was 500 to 2500 nM.
`Cc1ccc(-n2nc(C3CCOCC3)c3ccncc32)cn1` [Compound 47, 2-Methyl-5-[3-(oxan-4-yl)-1H-pyrazolo[3,4-c]pyridin-1-yl]pyridine]: the IC50 was 500 to 2500 nM.
As for `FC1(F)CCN(c2nn(-c3ccc(Cl)cc3)c3cnccc23)C1` [Compound 48, 1-[1-(4-Chlorophenyl)-1H-pyrazolo[3,4-c]pyridin-3-yl]-3,3-difluoropyrrolidine], the figure is 100 to 500 nM.
Consider `OC1CCN(c2nn(-c3ccc(Cl)cc3)c3cnccc23)C1` (stereo not drawn) [Compound 49, 1-[1-(4-Chlorophenyl)-1H-pyrazolo[3,4-c]pyridin-3-yl]pyrrolidin-3-ol], for which the IC50 is < 100 nM.
For the compound `COC1CCN(c2nn(-c3ccc(C)cc3)c3cnccc23)C1` (stereo not drawn) [Compound 50, 3-Methoxy-1-[1-(4-methylphenyl)-1H-pyrazolo[3,4-c]pyridin-3-yl]pyrrolidine], the IC50 is < 100 nM.
On to `Clc1ccc(-n2nc(N3CCCCC3)c3ccncc32)cc1` [Compound 51, 1-[1-(4-Chlorophenyl)-1H-pyrazolo[3,4-c]pyridin-3-yl]piperidine], for which the IC50 was in the range of 500 to 2500 nM.
With `FC1(F)CCN(c2nn(-c3ccc(Cl)cc3)c3cnccc23)CC1` [Compound 52, 1-[1-(4-Chlorophenyl)-1H-pyrazolo[3,4-c]pyridin-3-yl]-4,4-difluoropiperidine], the concentration for half-maximal inhibition (IC50) is 100 to 500 nM.
`OC1CCN(c2nn(-c3ccc(Cl)cc3)c3cnccc23)CC1` [Compound 53, 1-[1-(4-Chlorophenyl)-1H-pyrazolo[3,4-c]pyridin-3-yl]piperidin-4-ol]: the IC50 was < 100 nM.
With `Cc1ccc(-n2nc(N3CCC(C(N)=O)CC3)c3ccncc32)cc1` [Compound 54, 1-[1-(4-Methylphenyl)-1H-pyrazolo[3,4-c]pyridin-3-yl]piperidine-4-carboxamide], the concentration for half-maximal inhibition (IC50) was < 100 nM.
As for `Fc1ccc(-n2nc(N3CCOCC3)c3ccncc32)cc1` [Compound 55, 4-[1-(4-Fluorophenyl)-1H-pyrazolo[3,4-c]pyridin-3-yl]morpholine], the IC50 was 100 to 500 nM.
For the compound `Clc1ccc(-n2nc(N3CCOCC3)c3ccncc32)cc1` [Compound 56, 4-[1-(4-Chlorophenyl)-1H-pyrazolo[3,4-c]pyridin-3-yl]morpholine], the IC50 was < 100 nM.
For `Cc1ccc(-n2nc(N3CCOCC3)c3ccncc32)cc1` [Compound 57, 2,2,2-Trifluoroacetic acid; 4-[1-(4-methylphenyl)-1H-pyrazolo[3,4-c]pyridin-3-yl]morpholine], the IC50 is < 100 nM.
On to `Cc1ccc(-n2nc(N3CCOCC3)c3ccncc32)c(F)c1` [Compound 58, 4-[1-(2-Fluoro-4-methylphenyl)-1H-pyrazolo[3,4-c]pyridin-3-yl]morpholine], for which the IC50 is < 100 nM.
As for `CC1CN(c2nn(-c3ccc(Cl)cc3)c3cnccc23)CCO1` (stereo not drawn) [Compound 59, 4-[1-(4-Chlorophenyl)-1H-pyrazolo[3,4-c]pyridin-3-yl]-2-methylmorpholine], the figure is < 100 nM; as for `CC1COCCN1c1nn(-c2ccc(Cl)cc2)c2cnccc12` (stereo not drawn) [Compound 60, 4-[1-(4-Chlorophenyl)-1H-pyrazolo[3,4-c]pyridin-3-yl]-3-methylmorpholine], < 100 nM; as for `Cc1ccc(-n2nc(N3CCOC(CC(C)C)C3)c3ccncc32)cc1` (stereo not drawn) [Compound 61, 4-[1-(4-Methylphenyl)-1H-pyrazolo[3,4-c]pyridin-3-yl]-2-(2-methylpropyl)morpholine], 100 to 500 nM.
Turning to `C[C@@H]1CN(c2nn(-c3ccc(Cl)cc3)c3cnccc23)C[C@H](C)O1` [Compound 62, (2S,6R)-4-[1-(4-Chlorophenyl)-1H-pyrazolo[3,4-c]pyridin-3-yl]-2,6-dimethylmorpholine], the IC50 lay within 100 to 500 nM.
As to `Cc1ccc(-n2nc(N3CC4CCC(C3)O4)c3ccncc32)cc1` [Compound 63, 3-[1-(4-Methylphenyl)-1H-pyrazolo[3,4-c]pyridin-3-yl]-8-oxa-3-azabicyclo[3.2.1]octane], the IC50 was < 100 nM.
As for `Cc1ccc(-n2nc(N3CCOC(C)(C)C3)c3ccncc32)cc1` [Compound 64, 2,2-Dimethyl-4-[1-(4-methylphenyl)-1H-pyrazolo[3,4-c]pyridin-3-yl]morpholine], the figure is < 100 nM; as for `Cc1ccc(-n2nc(N3CCOCC3(C)C)c3ccncc32)cc1` [Compound 65], 100 to 500 nM.

By IC50 is commonly meant the concentration that inhibits the measured activity by half.
